Consider two compounds from US11746103B2, “ALK-5 inhibitors and uses thereof” (Sumitomo Pharma Oncology, Inc., priority 2020, dated 2023).

In general, inhibition refers to how much of the control response was suppressed. By IC50 is commonly meant the concentration that inhibits the measured activity by half. Low values mean greater potency in that assay, high ones weaker potency in that assay.

Entries after “also recorded” stand apart in the source; their conditions may differ.

The nature of data set [1]: Longitudinal PK/PD analysis in A549 xenograft mouse model (plasma and tumor PK). The class given is in vivo. The settings on record: 75 mg/kg single oral dose. The procedure: (§1) In this study, p-SMAD2 (Ser465/Ser467) and a housekeeping gene (GAPDH) were measured at six timepoints from zero (established using vehicle-treated animals) up to twenty-four hours post dose for a single drug dose of seventy-five milligrams per kilogram per subject (three subjects per dosing group).
(§2) For this study, xenografts were prepared and implanted in mice as follows. At five weeks of age, female athymic nude mice (purchased from Charles River) were injected with approximately 3.2 million A549 cells (ATCC, CCL-185). Cells were harvested and resuspended in plain RPMI media (no phenol red added) and Matrigel (Corning 356237) at a one-to-one ratio, and two hundred-microliters of the cell suspension were injected into the right hind flank of each mouse. Tumors were measured every three days by caliper, and as tumors reached an average of ninety millimeters cubed, mice were randomized in groups of three. Each of the test compounds (Ex-10 and Ex-11) was resuspended in 1-methyl-2-pyrrolidinone (Sigma, 494496) (10%) plus 20% Solutol (Sigma 42966) in water (90%). The drug suspensions were sonicated for fifteen minutes to generate a fine particle suspension before being given to the test subjects. Subjects were dosed (per oral gavage) with the suspension. A vehicle control group with three mice was used to establish the baseline and timepoint zero of phospho-SMAD-2 in the tumor xenograft. The test compounds were administered to the respective subject groups at seventy-five milligrams per kilogram. Samples were obtained post administration of test compounds at 20 minutes, one hour, two hours, four hours, and twenty-four hours. Tumors were harvested, snap frozen and stored at negative eighty degrees Celsius until further processing. Plasma was collected from all animals by collecting whole blood via cardiac puncture, followed by centrifugation in tubes containing EDTA (BD, microtainer tubes, 365974). A group of three mice receiving vehicle only served as the zero timepoint for both drug groups. The phospho-SMAD-2 levels were determined using the Bio-Plex Pro™ Phospho-Smad2 (Ser465/Ser467) Set (BioRad 171V50019M). The phospho-SMAD-2 levels were normalized to GAPDH (MILLIPLEX MAP GAPDH Total Magnetic Bead MAPmate™, Millipore 46-667MAG) levels from each sample. All analytes were analyzed in a multiplex fashion with the Bio-Plex Pro Cell Signaling Reagent Kit (BioRad 171304006M). Frozen tumor samples (fifteen to thirty milligrams) were lysed in 100 μl lysis buffer, processed in a bead mill tube, and centrifuged. The resulting lysate was used at 1:50 dilution for the assay according to the manufacturer's instructions. Bead suspension was analyzed using the Luminex system (MAGPIX).

For data set [2], the system named is TGF-β1 mediated alpha-SMA expression in primary human bronchial fibroblasts derived from IPF patients. The experiment in a line: Fibroblast to Myofibroblast Transformation (FMT) assay. To be noted: for max PIN of TGF-β1 mediated alpha-SMA expression: in at least two donors.
Description: To test the ability of compounds of the invention to inhibit the TGF-β1 dependent transition of fibroblasts to myofibroblasts in a relevant disease model of IPF, a study was carried out using an FMT assay employing lung fibroblasts from IPF patients. In this model the transition of fibroblasts to myofibroblasts is determined by the expression of the biomarker alpha smooth muscle actin (SMA).
Each drug concentration condition was evaluated in biological duplicates. One hour after compound addition, cells were stimulated with 1.25 ng/ml of TGF-01 and cultured for 72 hours thereafter. At the end of 72 hours cells were fixed using formaldehyde. The results were generated using high content imaging after staining cells using the nuclear stain DAPI as well as evaluation of the expression of alpha SMA. […] As a negative control 0.1% DMSO was used matching the DMSO concentration in treated wells.
The subject of data set [3] is p-SMAD2 (Ser465/Ser467) in A549 xenograft. Nature of the data set: Longitudinal PK/PD analysis of p-SMAD2 in A549 xenograft mouse model (PD). The class given is in vivo. The settings on record: 75 mg/kg single oral dose; for inhibition at 75 mg/kg: Mus musculus, A549, 4 hours post drug administration, read-out: inhibition of p-SMAD2 compared to the vehicle group. The procedure:
as §1, §2

Data set [4] deals with COV434 cells (wild-type FOXL2). The experiment in a line: FOXL2 cell viability assay (Cell Titer Glo), COV434. The class given is cell-based. The settings on record: Homo sapiens, 72 h, 3 days. The procedure: EX-11 was submitted to a cell viability assay in KGN and COV434 cell lines. KGN cells are derived from FOXL2^C134W AGCT of a person with a recurrent metastatic GCT. COV434 cells are derived from FOXL2WT JGCT of a person with a recurrent metastatic GCT. The cells were seeded in triplicate in 96 well culture plates and treated with nine, 3-fold dilutions of EX-11 or DMSO for 6 days (KGN) or 3 days (Cov434), which represented 3 cell doublings, respectively. Viability was assessed by Cell Titer Glo (Promega).
For orientation: Cellular ATP, detected with luciferase, serves as a proxy for viable cell number.

The subject of the next data set is ES-2-luc cells. The experiment in a line: Cachexia model (ES-2 clear cell carcinoma). The settings on record: 150 mg/Kg BID. It counts as in vivo, mouse. An excerpt: TGF-β1 signaling regulates ovarian cancer progression during initial carcinogenesis, tumor dissemination, and reestablishment of ascites through peritoneal cavity. Clear cell carcinoma is a specifically aggressive and therapy-resistant subtype of epithelial ovarian cancer. ES-2 clear cell carcinoma in vivo model was used to test efficacy of EX-11 in reducing ovarian tumor burden as determined by ascites fluid volume assessment. Because ALK5 signaling can regulate muscle growth and wasting, the efficacy of EX-11 in preventing ovarian cancer-induced cachexia was tested. Muscle health was assessed using histological evaluation of heart muscle tissue, and by comparison of gross weight of hind limb between the different treatment groups.
Sixteen-week-old female athymic nude mice were injected with two million ES-2-luc cells. […]
Mortality was recorded for animals found dead in the cage, and for the animals sacrificed based on humane end point based on main three criteria—loss of mobility and response, wasting with pronounced ascites fluid buildup, and palpable drop in body temperature (animals were assessed as cold to touch when handled in gloves).
On study day 22, the remaining surviving animals in the vehicle group were determined moribund, and the study was terminated based on humane end point criteria. […]

The subject of the next data set is EMT6 tumors. Nature of the data set: EMT6 syngeneic TNBC model.

Description for EMT6 tumors: The objective of this study was to evaluate preclinically the in vivo therapeutic efficacy of combining EX-11 with anti-PD-L1 and/or anti-PD-1 therapy for the treatment of EMT6 tumors orthotopically implanted in the mammary fat pad of female Balb/C mice.
Balb/C mice (aged 7-9 weeks) were inoculated orthotopically in the right mammary fat pad with EMT6 breast cancer cells (2.5×10^5) in 0.1 ml of PBS. Tumor measurements were performed via digital calipers. Once the mean tumor size reached approximately 85 mm^3 (day 11), 120 mice were randomized to 8 treatment arms (15 mice per arm).
The anti-PD-L1 inhibitor used in this study was a product of BioXcell (Cat #: BE0101, Clone #: 10F.9G2). The vehicle for the anti-PD-L1 inhibitor was PBS. The anti-PD-1 inhibitor used in this study was a product of BioXcell (Cat #: BE0146, Clone #: RMP1-14). The vehicle for the anti-PD-1 inhibitor was PBS. These inhibitors were injected intraperitoneally (i.p.), bi-weekly (BIW) for 3 weeks. The vehicle for EX-11 was NMP (10%)+20% Solutol in WFI (Water for Injection) (90%). The vehicle used for EX-11 was also used for the “Vehicle” arm of the study. EX-11 and the vehicle were delivered via oral gavage (p.o.), bi-daily (BID) for 21 days.
Body weights and tumor volumes were measured twice per week. Tumor volumes were measured in two dimensions using a caliper, and the volume was expressed in mm^3 using the formula: V=(L×W×W)/2, where V is tumor volume, L is tumor length (the longest tumor dimension) and W is tumor width (the longest tumor dimension perpendicular to L). Tumor Growth Inhibition (TGI) reported was TGI at the final study day, and is expressed as Mean % Δ Inhibition and was calculated using the following formula: [(C−C0)−(T−T0)/(C−C0)]*100%, where C refers to the tumor volume of the vehicle on the final study day, C0 to the tumor volume of the vehicle on the first day of dosing, T to the tumor volume of the treatment on a specific day of dosing and T0 to the tumor volume of the treatment group on the first day of dosing.
The first phase of the study was the dosing phase and was terminated at day 21, where 3 animals were sacrificed, and plasma and tumor samples were collected for biomarker analysis. The remaining 12 animals were monitored without dosing to determine mean survival.

As for `Cc1cccc2c(Nc3ccnc(Nc4ccc(N5CCOCC5)cc4)n3)cnnc12` [EX-10, N4-(8-methylcinnolin-4-yl)-N2-(4-morpholino-phenyl)-pyrimidine-2,4-diamine], in data set [1], the “drug concentration in plasma and tumor over time” value is “spiked 20 minutes to 1-hour post drug administration and stayed high up to 4 hours post drug administration”; the “drug in plasma and tumor at 24 hours post drug administration” value is given as “cleared out of the system completely”. In data set [2] (donor IPF05), the “LogM IC50 αSMA” value is recorded as −6.8 LogM, the “Max PIN (%)” value is 106.4% and the “potentially toxic (>25% loss of nuclei)” value is over −5.5. For the same compound, in data set [2] (donor IPF06), the “LogM IC50 αSMA” value was −6.7 LogM and the “Max PIN (%)” value is 110.3%. In data set [2] (donor IPF08), the “LogM IC50 αSMA” value is recorded as −7.0 LogM, the “Max PIN (%)” value came out at 100.3% and the “potentially toxic (>25% loss of nuclei)” value is given as over −5.5. Also, the “max PIN of TGF-β1 mediated alpha-SMA expression” value in data set [2] is listed as “greater than 75”. Besides, in data set [3], the “p-SMAD2 levels at 24 hours post drug administration” value is recorded as “rose back to baseline levels” and the inhibition at 75 mg/kg amounted to 74.3%.

In data set [4], `Cc1cccc2c(Nc3ccnc(Nc4cccc(N5CCOCC5)c4)n3)cnnc12` [EX-11, N4-(8-methylcinnolin-4-yl)-N2-(3-morpholinophenyl)pyrimidine-2,4-diamine] returned a half-inhibitory concentration (IC50) of over 10 µM. In data set [1], the “drug in plasma and tumor at 24 hours post drug administration” value is given as “cleared out of the system”; the “time of maximum drug concentration in plasma and tumor” value is “around 4 hours”. Besides, in data set [2] (donor IPF05), the “LogM IC50 αSMA” value was −7.2 LogM, the “Max PIN (%)” value was determined as 107.2% and the “potentially toxic (>25% loss of nuclei)” value is over −6.0. Further, in data set [2] (donor IPF06), the “LogM IC50 αSMA” value was −7.0 LogM, the “Max PIN (%)” value was found to be 112.9% and the “potentially toxic (>25% loss of nuclei)” value was over −5.5. In addition, in data set [2] (donor IPF08), the “LogM IC50 αSMA” value was −7.3 LogM, the “Max PIN (%)” value amounted to 103.7% and the “potentially toxic (>25% loss of nuclei)” value is listed as over −6.0. The “inhibition of TGF-β-mediated alpha-SMA expression” value in data set [2] (in all three donors) is recorded as “full concentration-dependent inhibition”. Moreover, in data set [2], the “max PIN of TGF-β1 mediated alpha-SMA expression” value is recorded as “greater than 75”. Further, in the data set with ES-2-luc cells, the “ascites fluid volume compared to vehicle” value is “reduction in total fluid volume; also recorded: reduced ascites fluid volume” and the “whole hind limb weight compared to vehicle” value is given as “recorded higher; also recorded: improved hind limb weight retention”. In addition, in data set [3], the “p-SMAD2 levels at 24 hours post drug administration” value is on record as “rose back to baseline levels” and the inhibition at 75 mg/kg is 92.3%. For the same compound, in the data set on EMT6 tumors (EX-11 at 75 mg/kg PO BID x 21 days), the “tumor growth inhibition (TGI) compared to vehicle” value was “did not result in significant TGI”. In the data set on EMT6 tumors (EX-11 at 150 mg/kg PO BID x 21 days), the “tumor growth inhibition (TGI) compared to vehicle” value was found to be 37%. Also, the “Mean survival” value in the data set on EMT6 tumors (EX-11 at 150 mpk where given) was 25 days. Besides, the tumor pliability result in the data set on EMT6 tumors (all groups receiving EX-11 vs vehicle or checkpoint antibody single agent) is listed as “substantially more pliable”.
